Reference: PMC10504751, “Chalcone/1,3,4-Oxadiazole/Benzimidazole hybrids as novel anti-proliferative agents inducing apoptosis and inhibiting EGFR & BRAFV^600E” (BMC Chemistry, 2023)
Where “and” joins values, the source holds several entries; their conditions need not be identical. Identical values can stand only once.

How the values were obtained:
[1] = test system: melanoma LOX-IMVI cell line; experiment: Propidium iodide anti-proliferative assay in LOX-IMVI; format: cell-based, human; conditions: for IC50: Homo sapiens, melanoma LOX-IMVI, 48 h incubation; for fold more selective towards LOX-IMVI cell line: LOX-IMVI vs MCF-10 A
Protocol: Consequently, the half-maximal inhibitory concentration (IC50) of these compounds was determined in LOX-IMVI cell line using propidium iodide (PI)^31, 32 with Staurosporine (broad spectrum protein kinase inhibitor) as a reference.
Cells whose cell membranes are damaged or have changed permeability are counted as dead ones. […] The medium was removed; the compounds were added to the plates at 10 µM concentrations (in 0.1% DMSO) in triplicates, followed by incubation for 48 h. DMSO (0.1%) was used as control. After incubation, medium was removed followed by the addition of PI (25 µl, 50µg/mL in water/medium) to each well of the plates. At -80 °C, the plates were allowed to freeze for 24 h, followed by thawing at 25 °C. A fluorometer (Polar-Star BMG Tech) was used to record the readings at excitation and emission wavelengths of 530 and 620 nm for each well. The percentage cytotoxicity of compounds was calculated using the following formula:
Where ATC= Absorbance of treated cells and AC= Absorbance of control.

[2] = test system: Caspase-8 in MCF-7 breast cancer cells; experiment: Caspase-8 assay; format: cell-based, human; conditions: for Caspase-8 Fold change: MCF-7, vs untreated control; for Caspase-8 Conc: MCF-7 breast cancer cells
[3] = test system: Cytochrome C in MCF-7 human breast cancer cell line; experiment: Cytochrome C assay; format: cell-based; conditions: for Cytochrome C Fold change: MCF-7, vs untreated control; for Cytochrome C Conc: MCF-7 breast cancer cells
MCF-7 cells [4] = experiment: Cell cycle analysis; format: cell-based, human; conditions: MCF-7, IC50 (0.95 µM), 24 h
Description: From the previous results, it was concluded that compound 7k might arrest cells at G1/S and prevent it from entering G2/M phase as indicated by decreased percentage of accumulation of cells in G2/M phase compared to control.

MCF-7 cells [5] = experiment: Annexin V-FITC/PI apoptosis detection; format: cell-based, human; conditions: MCF-7, IC50 (0.95 µM), 24 h
Protocol: To further study the root for cytotoxic activity of compound 7k, Annexin V-FITC/PI assay method^40, 41 was used to investigate its capability to induce apoptosis.
Apoptosis was determined by flow cytometry based on the Annexin-V-fluoresce in isothiocyanate (FITC) and propidium iodide (PI) staining kit (BD Pharmingen, San Diego, USA) See Appendix A.
Apoptosis was determined by flow cytometry based on the Annexin-V-fluoresce in isothiocyanate (FITC) and propidium iodide (PI) staining kit (BD Pharmingen, San Diego, USA.^15^,1^6 […] Apoptotic cells were defined as Annexin-V-positive. […] Treated cells were trypsinized, washed twice with PBS and transferred into micro centrifuge tubes for centrifugation at1000 rpm for 5 min at room temperature, then resuspended in binding buffer, 5 μL of FITC and PI were added to per eppendorf tube, cells were vortexed, incubated for 15 min at room temperature in dark. Subsequently, cells were analyzed by flow cytometry (Becton Dickinson, Franklin Lakes, and USA).

[6] = test system: Panc-1, A-549, MCF-7 and HT-29; experiment: Propidium iodide anti-proliferative assay, four cell lines together; format: cell-based; conditions: Homo sapiens; range over Panc-1, A-549, MCF-7, HT-29; read-out: IC50 range on the four tested cell lines
Protocol: The propidium iodide (PI) tests^31, 32 were further used for assessment of the IC50 of all synthesized compounds and compared to Doxorubicin as a positive control against four cancer cell lines; pancreatic cancer cell line (Panc-1), epithelial line cancer cell (A-549), breast cancer cell line (MCF-7), and colon cancer cell line (HT-29).
Using the propidium iodide fluorescence assay with doxorubicin as the reference drug, IC50 of the 24 compounds 7a-x, was carried out according to a previously reported procedure^31, 32 against a panel of four human cancer cell lines; epithelial cancer cell line (A-549), breast cancer cell line (MCF-7), colon cancer cell line (HT-29) and pancreas cancer cell line (Panc-1). Compounds 7a-x were incubated with cancer cells for 2 days at different concentrations. See Appendix A.
To explore the antiproliferative potential of compounds propidium iodide fluorescence assay was performed using different cell lines (melanoma cancer cell line LOX-IMVI, pancreatic cancer cell line (Panc-1), epithelial line cancer cell (A-549), breast cancer cell line (MCF-7), and colon cancer cell line (HT-29). To calculate the total nuclear DNA, a fluorescent dye (propidium iodide, PI) is used which can attach to the DNA,^9,^10 thus offering a quick and precise technique. PI cannot pass through the cell membrane and its signal intensity can be considered as directly proportional to the quantity of cellular DNA. Cells whose cell membranes are damaged or have changed permeability are counted as dead ones. The assay was performed by seeding the cells of different cancer cell lines at a density of 3000-7500 cells/well (in 200µl medium) in culture plates followed by incubation for 24h at 37 °C in humidified 5% CO2/95% air atmospheric conditions. […] A fluorometer (Polar-Star BMG Tech) was used to record the readings at excitation and emission wavelengths of 530 and 620 nm for each well. The percentage cytotoxicity of compounds was calculated using the following formula:
Where ATC= Absorbance of treated cells and AC= Absorbance of control. […]

[7] = test system: Caspase-3 in MCF-7 breast cancer cells; experiment: Caspase-3 assay; conditions: for Caspase-3 Fold change: MCF-7, vs untreated control; for Caspase-3 Conc: MCF-7 breast cancer cells
Protocol: All reagents were allowed to reach room temperature before use. All liquid reagents were gently mixed before use. The number of 8-well strips needed for the assay was determined. These were inserted into the frame(s) for current use. A total of 100 µL of the Standard Diluent Buffer was added to the zero standard wells. Well(s) reserved for chromogen blank were left empty. A total of 100 µL of standards and controls or diluted samples was added to the appropriate microtiter wells. The sample dilution chosen was optimized for each experimental system. The side of the plate was gently tapped on to
mix. Wells were covered with a plate cover and incubated for 2 h at room temperature. The solution was thoroughly aspirated or decanted from the wells and the liquid was discarded; wells were washed four times. […] The side of the plate was gently tapped on to mix. The plate was covered with a plate cover and incubated for 1h at room temperature. The solution was thoroughly aspirated or decanted from wells and the liquid was discarded; wells were washed four times. A total of 100 µL Anti-Rabbit IgG HRP Working Solution was added to each well except the chromogen blank(s). The working dilution was prepared as described in Preparing IgG HRP. Wells were covered with the plate cover and incubated for 30 min at room temperature. The solution was thoroughly aspirated or decanted from the wells and the liquid was discarded. Wells were washed four times. A total of 100 µL of Stabilized Chromogen was added to each well. The liquid in the wells began to turn blue. It was incubated for 30 min at room temperature and in the dark. The incubation time for chromogen substrate was determined by the microtiter plate reader used. Many plate readers have the capacity to record a maximum optical density (O.D.) of 2.0. The O.D. values were monitored, and the substrate reaction was stopped before the O.D. of the positive wells exceeds the limits of the instrument. The O.D. values at 450 nm could only be read after the Stop Solution had been added to each well. A total of 100 µL of Stop Solution was added to each well. The side of the plate was gently tapped to mix. The solution in the wells changed from blue to yellow. The absorbance of each well was read at 450 nm, having blanked the plate reader against a chromogen blank composed of 100 µL each of Stabilized Chromogen and Stop Solution. The plate was read within 2 h after adding the Stop Solution. A curve fitting software was used to generate the standard curve.
The concentrations for unknown samples and controls from the standard curve were read. Value(s) obtained for sample(s) by the appropriate dilution factor were multiplied to correct for the dilution in step 3.

BAX in MCF-7 = experiment: BAX activation assay; conditions: for BAX Conc: MCF-7; for BAX Fold change: MCF-7, vs untreated control
Protocol: All reagents were brought to room temperature for at least 30 min before opening (except the human BAX-α Standard). Human BAX-α Standard solution was not be left at room temperature for more than 10 min. Duplicates of all standards, controls, and samples were run. The Assay Layout Sheet was used to determine the number of wells to be used, and any remaining wells were put with the desiccant back into the pouch, and the ziplock was sealed. Unused wells were stored at 4 ◦C. A total of 100 µL of Assay Buffer was pipetted into the S0 (0 pg/mL standard) wells. A total of 100 µL of Standards #1 through #6 was pipetted into the appropriate wells. A total of 100 µL of the samples was pipetted into the appropriate wells. The plate was gently tapped to mix the contents. The plate was sealed and incubated at room temperature on a plate shaker for 1 h at ~500 rpm. The contents of the wells were emptied and washed by adding 400 µL of wash solution to every well. The wash was repeated four more times for a total of five washes. After the final wash, the wells were emptied or aspirated and firmly the plate on a lint-free paper towel was tapped to remove any remaining wash buffer. A total of 100 µL of yellow antibody was pipetted into each well, except the Blank. The plate was sealed and incubated at room temperature on a plate shaker for 1 h at ~500 rpm. The contents of the wells were emptied and washed by adding 400 µL of wash solution to every well. The wash was repeated four more times for a total of five washes. After the final wash, the wells were emptied or aspirated, and the plate was firmly tapped on a lint-free paper towel to remove any remaining wash buffer. A total of 100 µL of blue Conjugate was added to each well, except the Blank. The plate was sealed and incubated at room temperature on a plate shaker for 30 min at ~500 rpm. The contents of the wells were emptied and washed by adding 400 µL of wash solution to every well. The wash was repeated four more times for a total of five washes. After the final wash, the wells were emptied or aspirated and the plate was firmly tapped on a lint-free paper towel to remove any remaining wash buffer. A total of 100 µL of Substrate Solution was pipetted into each well. It was incubated for 30 min at room temperature on a plate shaker at ~500 rpm. A total of 100 µL Stop Solution was pipetted into to each well. The plate reader was blanked against the Blank wells, and the optical density was read at 450 nm. The average net optical density (OD) bound for each standard and sample was calculated by subtracting the average Blank OD from the average OD for each standard and sample. Using linear graph paper, the Average Net OD for each standard versus BAX concentration in each standard were plotted. A straight line was approximated through the points. The concentration of BAX in the unknowns could be determined by interpolation.

Bcl-2 in MCF-7 = experiment: Bcl-2 inhibition assay; conditions: for Bcl-2 Conc: MCF-7; for Bcl-2 Fold reduction: MCF-7, vs untreated control
Protocol: All reagents were thoroughly mixed without foaming before use. The microwells were washed twice with approximately 300 µL Wash Buffer per well with the thorough aspiration of microwell contents between washes. Care was taken not to scratch the surface of the microwells. After the last wash, the wells were emptied and microwell strips were tapped on an absorbent pad or paper towel to remove excess Wash Buffer. The microwell strips were used immediately after washing or placed upside down on a wet absorbent paper for not longer than 15 min. Wells were not allowed to dry. A total of 100 µL of Sample Diluent was added in duplicate to all standard wells and the blank wells. Standard (1:2 dilution) in duplicate was prepared ranging from 32 to 0.5 ng/mL. A total of 100 µL of Sample Diluent, in duplicate, was added to the blank wells. A total of 80 µL of Sample Diluent, in duplicate, was added to the sample wells. A total of 20 µL of each sample, in duplicate, was added to the designated wells. A total of 50 µL of diluted biotin was added, conjugated to all wells, including the blank wells. It was covered with a plate cover and incubated at room temperature on a microplate shaker at 100 rpm for 2 h. The plate cover was removed and the wells were emptied. Microwell strips were washed times as described in Step 2. A total of 100 µL of diluted Streptavidin-HRP was added to all wells, including the blank wells. It was covered with a plate cover and incubated at room temperature on a microplate shaker at 100 rpm for 1 h. The plate cover was removed and the wells were emptied. Microwell strips were washed three times, as described in Step 2. A total of 100 µL of mixed TMB Substrate Solution was pipetted into all wells, including the blanks. The microwell strips were incubated at room temperature (18 ◦C to 25 ◦C) for about 15 min, on a rotator set at 100 rpm. Direct exposure to intense light was avoided. The point at which the substrate reaction is stopped was determined by the ELISA reader. Many ELISA readers record absorbance only up to 2.0 O.D. Therefore, the color development within individual microwells was watched by the person running the assay, and the substrate reaction was stopped before positive wells were no longer properly detectable. The enzyme reaction was stopped by quickly pipetting 100 µL of Stop Solution into each well, including the blank wells. It was important that the Stop Solution was spread quickly and uniformly throughout the microwells to inactivate the enzyme completely. Results were read immediately after the Stop Solution was added or within one hour if the microwell strips were stored at 2–8 ◦C in the dark. The absorbance of each microwell was read on a spectrophotometer using 450 nm as the primary wavelength.

SMILES	IC50 [1] [µM]	Caspase-8 Fold change [2]	Caspase-8 Conc [2] [ng/mL]	Cytochrome C Fold change [3]	Cytochrome C Conc [3] [ng/mL]	Caspase-3 Fold change [7]	Caspase-3 Conc [7] [pg/mL]	BAX Conc (BAX in MCF-7)	BAX Fold change (BAX in MCF-7)	Bcl-2 Conc (Bcl-2 in MCF-7)	Bcl-2 Fold reduction (Bcl-2 in MCF-7) [fold]	further results
O=C(CSc1nnc(-c2ccc3[nH]c(-c4ccc(Cl)cc4)nc3c2)o1)Nc1ccc(C(=O)/C=C/c2ccc(Cl)cc2)cc1 [Compound 7g, 2-{5-[2-(4-Chlorophenyl)-1 H-benzo[d]imidazol-5-yl]-1,3,4-oxadiazol-2-ylthio}-N-{4-[(E)-3-(4-chlorophenyl)acryloyl]phenyl}acetamide]	1.05 ± 0.1											
COc1ccc(-c2nc3cc(-c4nnc(SCC(=O)Nc5ccc(C(=O)/C=C/c6ccccc6)cc5)o4)ccc3[nH]2)cc1 [Compound 7k, 2-{5-[2-(4-Methoxyphenyl)-1 H-benzo[d]imidazol-5-yl]-1,3,4-oxadiazol-2-ylthio}-N-{4-[(E)-3-phenylacryloyl]phenyl}acetamide]		10 fold and 9.90 fold	1.680	14 fold and 14.00 fold	0.660	8 fold and 7.60 fold	501.60 ± 4.00	279.50 pg/mL and 279.500 pg/mL	33 fold and 33.0 fold	0.94 ng/mL and 0.940 ng/mL	5.4	percentage of cells in G2/M phase (MCF-7 cells [4]; control 12.22%): 3.19%; percentage of cells in S phase (MCF-7 cells [4]; control 29.51%): 34.86%; percentage of cells in G0-G1 phase (MCF-7 cells [4]; control 58.27%): 61.95%; early apoptosis (MCF-7 cells [5]): 28.71%; late apoptosis (MCF-7 cells [5]): 12.63%; necrosis (MCF-7 cells [5]): 3.05%; IC50 [6]: 0.95 to 1.4 µM
COc1ccc(-c2nc3cc(-c4nnc(SCC(=O)Nc5ccc(C(=O)/C=C/c6ccc(Cl)cc6)cc5)o4)ccc3[nH]2)cc1 [Compound 7l, 2-{5-[2-(4-Methoxyphenyl)-1 H-benzo[d]imidazol-5-yl]-1,3,4-oxadiazol-2-ylthio}-N-{4-[(E)-3-(4-chlorophenyl)acryloyl]phenyl}acetamide]	0.8 ± 0.1	9 fold and 9.30 fold	1.570	13 fold and 13.00 fold	0.595	7.50 fold	492.50 ± 4.00	271 pg/mL and 271.600 pg/mL	32 fold and 32.0 fold	0.97 ng/mL and 0.975 ng/mL	5.2	fold more selective towards LOX-IMVI cell line [1]: 111 fold; IC50 [6]: 1.1 to 1.65 µM
COc1ccc(/C=C/C(=O)c2ccc(NC(=O)CSc3nnc(-c4ccc5[nH]c(-c6ccc(OC)cc6)nc5c4)o3)cc2)cc1 [Compound 7m, 2-{5-[2-(4-Methoxyphenyl)-1 H-benzo[d]imidazol-5-yl]-1,3,4-oxadiazol-2-ylthio}-N-{4-[(E)-3-(4-methoxyphenyl)acryloyl]phenyl}acetamide]		7.90 fold	1.350	11 fold and 11.00 fold	0.515	7.20 fold	473.60 ± 3.50	268.200 pg/mL	31.5 fold	1.050 ng/mL	4.9	
COc1ccc(-c2nc3cc(-c4nnc(SCC(=O)Nc5ccc(C(=O)/C=C/c6ccccc6)cc5)o4)ccc3[nH]2)cc1OC [Compound 7p, 2-{5-[2-(3,4-Dimethoxyphenyl)-1 H-benzo[d]imidazol-5-yl]-1,3,4-oxadiazol-2-ylthio}-N-{4-[(E)-3-phenylacryloyl]phenyl}acetamide]	1.2 ± 0.1											
COc1ccc(-c2nc3cc(-c4nnc(SCC(=O)Nc5ccc(C(=O)/C=C/c6ccc(Cl)cc6)cc5)o4)ccc3[nH]2)cc1OC [Compound 7q, 2-{5-[2-(3,4-Dimethoxyphenyl)-1 H-benzo[d]imidazol-5-yl]-1,3,4-oxadiazol-2-ylthio}-N-{4-[(E)-3-(4-chlorophenyl)acryloyl]phenyl}acetamide]	2.5 ± 0.2											
COc1cc(-c2nc3cc(-c4nnc(SCC(=O)Nc5ccc(C(=O)/C=C/c6ccc(Cl)cc6)cc5)o4)ccc3[nH]2)cc(OC)c1OC [Compound 7v, 2-{5-[2-(3,4,5-Trimethoxyphenyl)-1 H-benzo[d]imidazol-5-yl]-1,3,4-oxadiazol-2-ylthio}-N-{4-[(E)-3-(4-chlorophenyl)acryloyl]phenyl}acetamide]	0.9 ± 0.1											fold more selective towards LOX-IMVI cell line [1]: 97 fold
